For assay [1], the system named is Sugen hypoxia model. As to the kind of experiment: Rat Sugen hypoxia model of pulmonary arterial hypertension: mean pulmonary pressure. In kind it is in vivo. The settings on record: for Effect on mean pulmonary arterial pressure: rat Sugen hypoxia model, 70 mg/kg; for Mean Pulmonary Pressure: SuHx. Here is the method:
Animals from Groups 2 to 5 (see Table 10) receive a single subcutaneous injection of sugen (20 mg/kg in 2 mL/kg volume) solution (10 mg/mL) on Day 0 and returned to their cages. Animals from Group 1 receive one subcutaneous injection of DMSO at 2 mL/kg (vehicle for sugen) on Day 0 and returned to their respective cages.
Groups 2-5 are placed in cages for which the controlled air is adjusted to receive a FiO2 equivalent to 0.10 (10%) using a mixture of nitrogen and ambient air controlled by the ventilated cage system. They are kept under these hypoxic conditions for 21 days. While in hypoxia, cages are cleaned and changed once a week, exposing the animals to ambient oxygen levels for less than 10 minutes. They are exposed to ambient oxygen levels from Day 22 to Day 56. Group 1 animals remain in cages exposed to ambient oxygen (normoxic) levels for 56 days. The animals are observed on a daily basis for any changes in their behaviour and general health status.
Treatment with the compound A, sildenafil or vehicle is administered as of Day 22 (Groups 2-5) as scheduled and described in Table 10. The Groups 2-4 receives a single dose per day. The reference group 5 receives sildenafil twice a day. Food and water are given ad libitum. Daily observation of the behaviour and general health status of the animals is done. Weekly body weight is taken.
Surgical Instrumentation and Measurement of Hemodynamic and Functional Parameters in Efficacy Study Animals • 1. On the selected day of surgery, rats are anaesthetized with a mixture of 2 to 2.5% isoflurane USP (Abbot Laboratories, Montreal, Canada) in oxygen, and placed on a heating pad to maintain body temperature. • 2. Rats are tracheotomized and immediately ventilated by means of a positive-pressure rodent respirator set at ≈10 ml/kg body weight at a frequency of 65-70 strokes/min. • 3. Lead II ECG contact electrodes is placed on the rat to continuously monitor the ECG during the surgical procedure. • 4. A cannula connected to a pressure transducer is inserted into the left femoral artery to measure the arterial blood pressure. • 5. A cannula connected to a pressure transducer is inserted into the right atria through the right jugular vein to measure the right atria pressure. • 6. The heart is exposed through a sternotomy and a 20GA 1.16 in Insyte is introduced into the right ventricle and rapidly hooked up to a saline filled PE-50 catheter connected to a transducer. • 7. Following a few seconds of right ventricular pressure recording, the Insyte is further advanced into the pulmonary artery to allow PAP recording for an additional 60 seconds. • 8. Hemodynamic parameters are recorded continuously for the duration of the procedure or until loss of PAP signal. • 9. Following hemodynamic monitoring, chest cavity is further opened to expose the lung. The muscle over the trachea is dissected away to remove the lungs and heart. Harvested tissue is rinsed with PBS to remove any excess of blood before to be weighed. • 10. For the histology and casting of the lungs, the process is as follows; 1) eight (8) rats per group is reserved to assess the histology of the left lung and is therefore be treated as described in point 12 of this section 8.2; 2) Two (2) rats per group serve to enable quantitative characterization of the three-dimensional vascular structure of the left lung and therefore is treated as described in section 8.3 for casting of the left lung. • 11. For histology, the left lobe is inflated using a 10 mL syringe filled with fixative (10% NBF) with attached blunt tip needle (23 g). Needle tip is inserted into the trachea, held in place with tied suture while another syringe is tied to the pulmonary artery. The lung is inflated gently at physiological pressure (20-25 mmHg) until all lobes are fully, uniformly, and consistently expanded (not allowing fixative to ooze through lung surface). This provides optimal vascular and airway expansion without causing excessive tissue disruption. […]

Assay [2] has as its system STAM model of non-alcoholic steatohepatitis. As to the kind of experiment: STAM model of NASH: Sirius red staining, fibrosis area. The settings on record: for Sirius red-positive area (fibrosis area, mean ± SD): n = 8. In kind it is in vivo, mice. The protocol:
NASH was induced in 48 male mice by a single subcutaneous injection of 200 μg streptozotocin (STZ, Sigma-Aldrich, USA) solution 2 days after birth and feeding with high fat diet (HFD, 57 kcal % fat, Cat #HFD32, CLEA Japan, Inc., Japan) after 4 weeks of age. Compound A was administered at 3 dose levels of 10, 20 and 40 mg/kg once daily from 6 to 9 weeks of age. Compound B was administered at a dose of 40 mg/kg once daily from 6 to 9 weeks of age. Telmisartan was administered at a dose of 10 mg/kg once daily from 6 to 9 weeks of age. For HE staining, sections were cut from paraffin blocks of liver tissue prefixed in Bouin's solution and stained with Lillie-Mayer's Hematoxylin (Muto Pure Chemicals Co., Ltd., Japan) and eosin solution (FUJIFILM Wako Pure Chemical Corporation). NAFLD Activity score (NAS) was calculated according to the criteria of Kleiner (Kleiner D E. et al., Hepatology, 2005; 41:1313). To visualize collagen deposition, Bouin's fixed liver sections were stained using picro-Sirius red solution (Waldeck, Germany). For quantitative analysis of fibrosis area, bright field images of Sirius red-stained sections were captured around the central vein using a digital camera (DFC295; Leica, Germany) at 200-fold magnification, and the positive areas in 5 fields/section were measured using ImageJ software (National Institute of Health, USA).

For assay [3] the test system is unchanged. Kind of assay: STAM model of NASH: liver triglyceride content. The settings on record: n = 8. In kind it is in vivo, mice. Here is the method:
NASH was induced in 48 male mice by a single subcutaneous injection of 200 μg streptozotocin (STZ, Sigma-Aldrich, USA) solution 2 days after birth and feeding with high fat diet (HFD, 57 kcal % fat, Cat #HFD32, CLEA Japan, Inc., Japan) after 4 weeks of age.
Compound A was administered at 3 dose levels of 10, 20 and 40 mg/kg once daily from 6 to 9 weeks of age. Compound B was administered at a dose of 40 mg/kg once daily from 6 to 9 weeks of age. Telmisartan was administered at a dose of 10 mg/kg once daily from 6 to 9 weeks of age.
Liver total lipid-extracts were obtained by Folch's method (Folch J. et al., J. Biol. Chem. 1957; 226: 497). Liver samples were homogenized in chloroform-methanol (2:1, v/v) and incubated overnight at room temperature. After washing with chloroform-methanol-water (8:4:3, v/v/v), the extracts were evaporated to dryness, and dissolved in isopropanol. Liver triglyceride content was measured by Triglyceride E-test (FUJIFILM Wako Pure Chemical Corporation, Japan).

Setting [4] is: 10 mg/kg PO QD, 6-9 wks of age (Compound A low, Telmisartan groups).
[5] abbreviates: 20 mg/kg PO QD, 6-9 wks of age (Compound A middle group).
[6] abbreviates: 40 mg/kg PO QD, 6-9 wks of age (Compound A high, Compound B groups).

Entries after “also recorded” stand apart in the source; their conditions may differ.

On to `FC(F)(F)Oc1ccc(Nc2ccc3cccc(Cl)c3n2)cc1` [8-Chloro-N-(4-(trifluoromethoxy)phenyl)quinolin-2-amine], for which the “Effect on mean pulmonary arterial pressure” value in assay [1] is “tendency to decrease”.
For the compound `FC(F)(F)Oc1ccc(Nc2ccc3cccc(Cl)c3n2)cc1` [Compound A, 8-Chloro-N-(4-(trifluoromethoxy)phenyl)quinolin-2-amine], the “Mean Pulmonary Pressure” value in assay [1] (female rats, 70 mg/kg QD gavage Day 22 to Day 56) turned out to be 24.1 mmHg; in assay [1] (female rats, 120 mg/kg QD gavage Day 22 to Day 56), 34.4 mmHg; in assay [1] (male rats, 70 mg/kg QD gavage Day 22 to Day 56) it was 26.8 mmHg; in assay [1] (male rats, 120 mg/kg QD gavage Day 22 to Day 56) it was 33.6 mmHg. In addition, in assay [1], the “Effect on mean pulmonary arterial pressure” value is listed as “tendency to decrease”. The “Sirius red-positive area (fibrosis area, mean ± SD)” value was found to be 0.70 ± 0.11% in assay [2] (setting [4]), 0.65 ± 0.13% in assay [2] (setting [5]) and 0.68 ± 0.14% in assay [2] (setting [6]). In addition, the “Fibrosis area (Sirius red-positive area) compared with the Vehicle group” value in assay [2] (20 mg/kg PO QD (Compound A middle group)) is “tended to decrease; also recorded: decreasing trends”. In addition, the “Pathological deposition of collagen in the liver (Sirius red staining)” value in assay [2] (summary statement, dose not stated) is “decreasing trend”. The results for the “Liver triglyceride (mean ± SD)” value in assay [3] (setting [4]), in assay [3] (setting [5]) and in assay [3] (setting [6]) were 64.9 ± 27.6 mg/g liver, 63.1 ± 21.2 mg/g liver and 66.6 ± 25.6 mg/g liver, respectively.

The values are drawn from patent US11992499B2, “Quinoline derivatives for use in the treatment of inflammation diseases” (ABIVAX, priority 2018, dated 2024).
